From patent US11324858B2, “Biomaterials for enhanced implant-host integration” (Massachusetts Institute of Technology, priority 2012, dated 2022)
Entries after “also recorded” stand apart in the source; their conditions may differ.

Columns and labels:
HUVECs and 10T1/2s = assay: Cord formation/contraction of HUVEC and 10T1/2 cells in collagen within PDMS microchannels, with contractility inhibitors; assay type: cell-based, human, mouse; conditions: treated immediately after seeding; 20 μM blebbistatin or 25 μM Y27632
Description: To test whether patterned endothelial cell (EC) cords induce vivo vessel formation in vivo, EC cords embedded in a fibrin matrix were implanted into the intraperitoneal space of nude mice (schematic, FIG. 1A). The cords were first prepared by seeding HUVECs and 10T1/2 cells suspended within collagen pre-polymer into a PDMS template and allowed to contract and remodel the collagen over a period of 4 hours. During this maturation period, the cells contracted against the matrix and each other, which caused the cords to shrink in diameter to approximately 50% of their original size (FIG. 1B). The HUVECs and 10T1/2 cells were mobile within the cords and also underwent some sorting during this time, with many of the 10T1/2 localizing to the periphery of the cords (FIG. 1C). […] After allowing the cords to contract, they were embedded into a larger fibrin gel (FIG. 1E) and prepared for implantation by attaching the samples to a polypropylene surgical mesh. The cords were implanted adjacent to a fat pad into athymic mice and resected at various time points. Tissues resected after 7 days, sectioned and stained with H&E indicated the presence of blood in areas where EC cords were initially present (FIG. 1F).
Micropatterning of Endothelial cell cords. EC cords were micropatterned as previously described (2). […]

hepatic aggregates = assay: Diffusion of DAPI through ligated constructs after i.p. injection; assay type: in vivo, mouse; conditions: post i.p. injection, EC Cord Ligated procedure
Description: FIGS. 16A-16B show the diffusion of small-molecule DAPI through ligated constructs. Constructs containing both hepatic aggregates and cords were implanted using procedures identical to those of the “EC Cord Ligated” control. Following implantation, the animals were injected i.p. with DAPI using the same volume and concentration typically used for luciferin administration. […] By 20 min post injection, DAPI-positive hepatic aggregates were identified throughout the constructs as shown by FIG. 16B.
To explore whether this vascularization strategy has potential to enable applications such as human tissue replacement or humanized mouse models, it was tested whether coimplantation of EC cords can support primary human hepatocytes. […] To test whether enhanced hepatic function in animals with EC cords was the result of direct paracrine signaling between adjacent EC cords and hepatocytes or of improved access to a blood supply, the parametrial fat pad was severed upstream of the constructs immediately after implantation to reduce blood supply (“EC Cord Ligated”; FIG. 4E). Bioluminescence imaging was performed 20 min after luciferin injection at each time point, which was confirmed to be adequate time for diffusionbased permeation of the construct in ligated control tissues by DAPI (a small molecule similar in size to luciferin; FIG. 16).

Row | Compound | cord formation / cord contraction under contractility inhibitor (HUVECs and 10T1/2s) | time to permeate construct and stain hepatic aggregates (hepatic aggregates)
1 | Cc1ccc2c(c1)C(=O)C1(O)CCN(c3ccccc3)C1=N2 (stereo not drawn) [blebbistatin] | prevented their contraction and elongation of the cells along the collagen; also recorded: failed to form cords | –
2 | N=C(N)c1ccc(-c2cc3ccc(C(=N)N)cc3[nH]2)cc1 [DAPI] | – | ≤ 20 min
3 | C[C@@H](N)[C@H]1CC[C@H](C(=O)Nc2ccncc2)CC1 [Y27632] | failed to form cords | –
